# Reference: patent publication US20120220562A1, “Anti-Viral Compounds” (ABBOTT LABAORATORIES, priority 2011, published 2012)
# Tested on: HCV 1b-Con1 replicon
# Test: HCV 1b-Con1 replicon assay in the presence of 5% FBS
# Assay type: cell-based
# Conditions: Hepatitis C virus
row,Structure (SMILES),EC50
1,"COC(=O)N[C@H](C(=O)N1CCC[C@H]1c1nc2cc([C@H]3CC[C@H](c4cc5nc([C@@H]6CCCN6C(=O)[C@@H](NC(=O)OC)C(C)C)[nH]c5cc4F)N3c3ccc(N4CCCCC4)c(F)c3)c(F)cc2[nH]1)C(C)C [Example 6.9, methyl {(2S)-1-[(2S)-2-(6-fluoro-5-{(2R,5R)-5-{6-fluoro-2-[(2S)-1-{(2S)-2-[(methoxycarbonyl)amino]-3-methylbutanoyl}pyrrolidin-2-yl]-1H-benzimidazol-5-yl}-1-[3-fluoro-4-(piperidin-1-yl)phenyl]pyrrolidin-2-yl}-1H-benzimidazol-2-yl)pyrrolidin-1-yl]-3-methyl-1-oxobutan-2-yl}carbamate]",< 0.1 nM
2,"COC(=O)N[C@H](C(=O)N1CCC[C@H]1c1nc2cc([C@H]3CC[C@H](c4ccc5[nH]c([C@@H]6CCCN6C(=O)[C@@H](NC(=O)OC)C(C)C)nc5c4)N3c3ccc(OCC4COCO4)cc3)ccc2[nH]1)C(C)C (stereo partly drawn) [Example 2.4, methyl {(2S)-1-[(2S)-2-{5-[(2R,5R)-1-[4-(1,3-dioxolan-4-ylmethoxy)phenyl]-5-{2-[(2S)-1-{(2S)-2-[(methoxycarbonyl)amino]-3-methylbutanoyl}pyrrolidin-2-yl]-1H-benzimidazol-5-yl}pyrrolidin-2-yl]-1H-benzimidazol-2-yl}pyrrolidin-1-yl]-3-methyl-1-oxobutan-2-yl}carbamate]",< 0.1 nM
3,"COC(=O)N[C@H](C(=O)N1[C@H](c2nc3cc([C@H]4CC[C@H](c5ccc6[nH]c([C@@H]7CCC(C)(C)N7C(=O)[C@@H](NC(=O)OC)C(C)C)nc6c5)N4c4ccc(C(C)(C)C)cc4)ccc3[nH]2)CCC1(C)C)C(C)C [Example 3.11, methyl {(2S)-1-[(5.5)-5-{5-[(2R,5R)-1-(4-tert-butylphenyl)-5-{2-[(2S)-1-{(2S)-2-[(methoxycarbonyl)amino]-3-methylbutanoyl}-5,5-dimethylpyrrolidin-2-yl]-1H-benzimidazol-5-yl}pyrrolidin-2-yl]-1H-benzimidazol-2-yl}-2,2-dimethylpyrrolidin-1-yl]-3-methyl-1-oxobutan-2-yl}carbamate]",< 0.1 nM
4,"COC(=O)N[C@H](C(=O)N1CCC[C@H]1c1nc2ccc([C@H]3CC[C@H](c4ccc5nc([C@@H]6CCCN6C(=O)[C@@H](NC(=O)OC)C(C)C)[nH]c5c4)N3c3cc(F)c(N4CCC(c5ccccn5)CC4)c(F)c3)cc2[nH]1)C(C)C [Example 2.13, methyl {(2S)-1-[(2S)-2-{5-[(2R,5R)-1-{3,5-difluoro-4-[4-(pyridin-2-yl)piperidin-1-yl]phenyl}-5-{2-[(2S)-1-{(2S)-2-[(methoxycarbonyl)amino]-3-methylbutanoyl}pyrrolidin-2-yl]-1H-benzimidazol-5-yl}pyrrolidin-2-yl]-1H-benzimidazol-2-yl}pyrrolidin-1-yl]-3-methyl-1-oxobutan-2-yl}carbamate]",< 0.1 nM
5,"COC(=O)N[C@H](C(=O)N1CCC[C@H]1c1nc2cc([C@H]3CC[C@H](c4cc5nc([C@@H]6CCCN6C(=O)[C@@H](NC(=O)OC)C6CCCC6)[nH]c5cc4F)N3c3cc(F)c(N4CCCCC4)c(F)c3)c(F)cc2[nH]1)C1CCCC1 [Example 3.39, dimethyl ({(2R,5R)-1-[3,5-difluoro-4-(piperidin-1-yl)phenyl]pyrrolidine-2,5-diyl}bis{(6-fluoro-1H-benzimidazole-5,2-diyl)(2S)pyrrolidine-2,1-diyl[(1S)-1-cyclopentyl-2-oxoethane-2,1-diyl]})biscarbamate]",< 0.1 nM
6,"COC(=O)N[C@H](C(=O)N1[C@H](c2nc3cc([C@H]4CC[C@H](c5cc6nc([C@@H]7C[C@@H]8CCC[C@@H]8N7C(=O)[C@@H](NC(=O)OC)C(C)C)[nH]c6cc5F)N4c4cc(F)c(N5CCCCC5)c(F)c4)c(F)cc3[nH]2)C[C@@H]2CCC[C@@H]21)C(C)C [Example 3.37, methyl {(2S)-1-[(2S,3aS,6aS)-2-{5-[(2R,5R)-1-[3,5-difluoro-4-(piperidin-1-yl)phenyl]-5-{6-fluoro-2-[(2S,3aS,6aS)-1-{(2S)-2-[(methoxycarbonyl)amino]-3-methylbutanoyl}octahydrocyclopenta[b]pyrrol-2-yl]-1H-benzimidazol-5-yl}pyrrolidin-2-yl]-6-fluoro-1H-benzimidazol-2-yl}hexahydrocyclopenta[b]pyrrol-1(2H)-yl]-3-methyl-1-oxobutan-2-yl}carbamate]",< 0.1 nM
7,"COC(=O)N[C@H](C(=O)N1CCC[C@H]1c1nc2ccc([C@H]3CC[C@H](c4ccc5nc([C@@H]6CCCN6C(=O)[C@@H](NC(=O)OC)C(C)C)[nH]c5c4)N3c3cc(F)c(N4CCC(c5ccc6ccccc6c5)CC4)c(F)c3)cc2[nH]1)C(C)C [Example 2.12, methyl {(2S)-1-[(2S)-2-{5-[(2R,5R)-1-{3,5-difluoro-4-[4-(2-naphthyl)piperidin-1-yl]phenyl}-5-{2-[(2S)-1-{(2S)-2-[(methoxycarbonyl)amino]-3-methylbutanoyl}pyrrolidin-2-yl]-1H-benzimidazol-5-yl}pyrrolidin-2-yl]-1H-benzimidazol-2-yl}pyrrolidin-1-yl]-3-methyl-1-oxobutan-2-yl}carbamate]",< 0.1 nM
8,"COC(=O)N[C@H](C(=O)N1CCC[C@H]1c1nc2cc([C@H]3CC[C@H](c4ccc5[nH]c([C@@H]6CCCN6C(=O)[C@@H](NC(=O)OC)C(C)C)nc5c4)N3c3ccc(-c4ccccn4)cc3)ccc2[nH]1)C(C)C [Example 3.1, methyl {(2S)-1-[(2S)-2-(5-{(2R,5R)-5-{2-[(2S)-1-{(2S)-2-[(methoxycarbonyl)amino]-3-methylbutanoyl}pyrrolidin-2-yl]-1H-benzimidazol-5-yl}-1-[4-(pyridin-2-yl)phenyl]pyrrolidin-2-yl}-1H-benzimidazol-2-yl)pyrrolidin-1-yl]-3-methyl-1-oxobutan-2-yl}carbamate]",< 0.1 nM
9,"COC(=O)N[C@H](C(=O)N1CCC[C@H]1c1nc2ccc([C@H]3CC[C@H](c4ccc5nc([C@@H]6CCCN6C(=O)[C@@H](NC(=O)OC)C(C)C)[nH]c5c4)N3c3cc(F)c(N4CCC(CCCc5ccccc5)CC4)c(F)c3)cc2[nH]1)C(C)C [Example 2.10, methyl {(2S)-1-[(2S)-2-{5-[(2R,5R)-1-{3,5-difluoro-4-[4-(3-phenylpropyl)piperidin-1-yl]phenyl}-5-{2-[(2S)-1-{(2S)-2-[(methoxycarbonyl)amino]-3-methylbutanoyl}pyrrolidin-2-yl]-1H-benzimidazol-5-yl}pyrrolidin-2-yl]-1H-benzimidazol-2-yl}pyrrolidin-1-yl]-3-methyl-1-oxobutan-2-yl}carbamate]",< 0.1 nM
10,"COC(=O)N[C@H](C(=O)N1CCC[C@H]1c1nc2cc([C@H]3CC[C@H](c4ccc5[nH]c([C@@H]6CCCN6C(=O)[C@@H](NC(=O)OC)C(C)C)nc5c4)N3c3cc(Cl)c(N4CCCCC4)c(Cl)c3)ccc2[nH]1)C(C)C [Example 4.4, methyl {(2S)-1-[(2S)-2-{5-[(2R,5R)-1-[3,5-dichloro-4-(piperidin-1-yl)phenyl]-5-{2-[(2S)-1-{(2S)-2-[(methoxycarbonyl)amino]-3-methylbutanoyl}pyrrolidin-2-yl]-1H-benzimidazol-5-yl}pyrrolidin-2-yl]-1H-benzimidazol-2-yl}pyrrolidin-1-yl]-3-methyl-1-oxobutan-2-yl}carbamate]",< 0.1 nM
11,"CCOc1ccc(N2[C@@H](c3ccc4nc([C@@H]5CCCN5C(=O)[C@@H](NC(=O)OC)C(C)C)[nH]c4c3)CC[C@@H]2c2ccc3nc([C@@H]4CCCN4C(=O)[C@@H](NC(=O)OC)C(C)C)[nH]c3c2)cc1 [Example 4.10, methyl {(2S)-1-[(2S)-2-{6-[(2R,5R)-1-(4-ethoxyphenyl)-5-{2-[(2S)-1-{(2S)-2-[(methoxycarbonyl)amino]-3-methylbutanoyl}pyrrolidin-2-yl]-1H-benzimidazol-6-yl}pyrrolidin-2-yl]-1H-benzimidazol-2-yl}pyrrolidin-1-yl]-3-methyl-1-oxobutan-2-yl}carbamate]",< 0.1 nM
12,"COC(=O)N[C@H](C(=O)N1CCC[C@H]1c1nc2cc([C@H]3CC[C@H](c4ccc5[nH]c([C@@H]6CCCN6C(=O)[C@@H](NC(=O)OC)C(C)(C)C)nc5c4)N3c3cc(F)c(N4CCC(c5ccccc5)CC4)c(F)c3)ccc2[nH]1)C(C)(C)C [Example 5.4, methyl {(2S)-1-[(2S)-2-{5-[(2R,5R)-1-[3,5-difluoro-4-(4-phenylpiperidin-1-yl)phenyl]-5-{2-[(2S)-1-{(2S)-2-[(methoxycarbonyl)amino]-3,3-dimethylbutanoyl}pyrrolidin-2-yl]-1H-benzimidazol-5-yl}pyrrolidin-2-yl]-1H-benzimidazol-2-yl}pyrrolidin-1-yl]-3,3-dimethyl-1-oxobutan-2-yl}carbamate]",< 0.1 nM
13,"COC(=O)N[C@H](C(=O)N1CCC[C@H]1c1nc2cc([C@H]3CC[C@H](c4cc5nc([C@@H]6CCCN6C(=O)[C@@H](NC(=O)OC)[C@@H](C)OC)[nH]c5cc4F)N3c3cc(F)c(N4CCN(c5ccc(C(F)(F)F)cc5)CC4)c(F)c3)c(F)cc2[nH]1)[C@@H](C)OC [Example 6.15, methyl {(2S,3R)-1-[(2S)-2-{5-[(2R,5R)-1-(3,5-difluoro-4-{4-[4-(trifluoromethyl)phenyl]piperazin-1-yl}phenyl)-5-(6-fluoro-2-{(2S)-1-[N-(methoxycarbonyl)-O-methyl-L-threonyl]pyrrolidin-2-yl}-1H-benzimidazol-5-yl)pyrrolidin-2-yl]-6-fluoro-1H-benzimidazol-2-yl}pyrrolidin-1-yl]-3-methoxy-1-oxobutan-2-yl}carbamate]",< 0.1 nM
14,"COC(=O)N[C@H](C(=O)N1CCC[C@H]1c1nc2cc([C@H]3CC[C@H](c4ccc5[nH]c([C@@H]6CCCN6C(=O)[C@@H](NC(=O)OC)C(C)C)nc5c4)N3c3cc(F)c(N4CC(C)(C)C4)c(F)c3)ccc2[nH]1)C(C)C [Example 4.24, methyl {(2S)-1-[(2S)-2-{5-[(R2R,5R)-1-[4-(3,3-dimethylazetidin-1-yl)-3,5-difluorophenyl]-5-{2-[(2S)-1-{(2S)-2-[(methoxycarbonyl)amino]-3-methylbutanoyl}pyrrolidin-2-yl]-1H-benzimidazol-5-yl}pyrrolidin-2-yl]-1H-benzimidazol-2-yl}pyrrolidin-1-yl]-3-methyl-1-oxobutan-2-yl}carbamate]",< 0.1 nM
